According to patent US9539309B2, “Controlled release of growth factors and signaling molecules for promoting angiogenesis” (President and Fellows of Harvard College, priority 2008, dated 2017):

Experiments:
[1] = system: Endothelial cells isolated from diabetics; test: in vitro sprouting model with endothelial cells isolated from diabetics; type: cell-based
Excerpt: In addition, there is an optimal VEGF concentration to induce most sprouts.
Endothelial cells isolated from diabetics produce more sprouts in the presence of a combination of both gamma-secretase inhibitors with VEGF. (FIG. 2, *P<0.05) than with either of them alone, which implies the need of a combination of both growth factor and DAPT.

[2] = system: cells in small intestines; test: in vivo effect of DAPT on the cells in small intestines (H&E, alcian blue, Ki67, HES-1 staining); design: species or system mice
Excerpt: FIG. 6 is a series of photomicrographs showing the effect of DAPT on gastrointestinal tissue. In vivo model was used to test the effect of DAPT delivered from alginate gel system and from intraperitoneal injection on the cells in small intestines. gel: alginate gel. ip: intraperitoneal injection. H&E, alcian blue, Ki67 and HES-1 are the four different staining methods to characterize the crypt cells in small intestines. Ki-67 was used to stain the proliferative cells. Loss of Notch signaling can alter the proliferation rate of crypt cells. HES-1 staining was to examine the expression of a known Notch target gene in crypts. Alcian blue staining was to examine the deposition of glycosaminoglycan molecules. Loss of Notch signaling can result in more deposition of glycosaminoglycan molecules. Expression of HES-1 (hairy and enhancer of split 1), a member of basic helix-loop-helix family of transcription factors and a known Notch target gene in crypts was examined. Loss of Notch signaling can alter the proliferation rate of crypt cells, as shown by Ki-67 staining the proliferative cells. In addition, Notch inhibition has been reported to alter the balance between proliferative crypt cells and goblet cells, resulting in more deposition of glycosaminoglycan molecules, as characterized by alcian blue staining.

[3] = DAPT delivered via intraperitoneal injection

Molecule	concentration of VEGF that gives the most sprouts if used alone ([1]; VEGF alone, FIG. 3) [ng/mL]	response to VEGF, capability of forming sprouts ([1]; endothelial cells from diabetics compared to age-matched non-diabetics, FIG. 1, P<0.05)	cell differentiation at distant sites (small intestines) ([2]; DAPT delivered from alginate gel system, compared with intraperitoneal injection, FIG. 6)	region of effects ([2]; DAPT delivered from the gel system)	Notch target gene expression, HES-1 staining [2, 3]	glycosaminoglycans, alcian blue staining [2, 3]	intestinal structure, H&E staining [2, 3]	proliferating cells, Ki67 staining [2, 3]	effects at distant organs (e.g., small intestines) ([2]; DAPT delivered via intraperitoneal injection, goes into the systemic circulation)
VEGF	50	reduced response	–	–	–	–	–	–	–
C[C@H](NC(=O)Cc1cc(F)cc(F)c1)C(=O)N[C@H](C(=O)OC(C)(C)C)c1ccccc1 [DAPT, N—[N-(3,5-Difluorophenacetyl-L-alanyl)]-S-phenylglycine t-butyl ester]	–	–	does not alter cell differentiation at distant sites as much	only has effects in the local region	downregulation of Notch target gene expression	presence of extra glycosaminoglycans	disrupts normal intestinal structure	loss of proliferating cells	led to adverse effects at distant organs
